The text below walks through data of patent publication US10570184B2, “GLP-1/glucagon receptor co-agonists for medical use” (Novo Nordisk A/S, priority 2014, dated 2020).

The structures appear in SMILES notation. Starred links: 1 amine or outer side, 2 acyl side, 3 side chain; linkers in the order of their positions; H or OH if unused. Non-standard residues stand in square brackets, D forms with d. Residues, ends and D or L forms follow the SMILES beside them. Groups on a side chain read outwards from the residue. *: point of attachment. C18 diacid = O=C(O)CCCCCCCCCCCCCCCCC(=O)*; γGlu = O=C(O)[C@H](CCC(=O)[*:2])N[*:1]; Ac4c = NC1(C(=O)O)CCC1; AEEA = NCCOCCOCC(=O)O; Aib = CC(C)(N)C(=O)O

T1 sequence (P43220 24-463): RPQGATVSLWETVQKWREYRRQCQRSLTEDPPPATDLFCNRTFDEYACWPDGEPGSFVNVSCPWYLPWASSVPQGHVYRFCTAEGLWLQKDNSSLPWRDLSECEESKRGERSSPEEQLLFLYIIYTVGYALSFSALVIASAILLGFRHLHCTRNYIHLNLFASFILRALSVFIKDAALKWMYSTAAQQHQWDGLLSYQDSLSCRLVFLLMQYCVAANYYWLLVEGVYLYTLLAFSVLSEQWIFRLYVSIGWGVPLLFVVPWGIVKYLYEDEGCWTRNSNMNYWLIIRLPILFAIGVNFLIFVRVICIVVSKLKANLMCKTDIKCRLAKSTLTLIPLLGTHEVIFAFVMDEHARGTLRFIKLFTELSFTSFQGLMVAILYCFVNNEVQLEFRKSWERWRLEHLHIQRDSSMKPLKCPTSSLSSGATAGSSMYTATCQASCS

This test has as its target T1, human GLP-1 receptor (Homo sapiens, UniProt P43220).
T1 construct: expressed in transfected cells; host or cells: membranes of BHK cells (parent BHKTS13), clone FCW467-12A
Put plainly: Assay (II)(a) GLP-1 receptor binding, 125I-GLP-1 displacement SPA on BHK membranes. The note with it: without presence of serum albumin; read-out: GLP-1R IC50 (nM) [Assay (II)(a)]. The essentials: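 Membranes from BHK cells (clone FCW467-12A) stably expressing human GLP-1R were incubated with serially diluted compounds (8×10EE-13 to 8×10EE-7 M before addition) and [125I]-GLP-1-(7-36)NH2 with WGA SPA beads, 2 h at 30° C, pH 7.4. IC50 taken from displacement by non-linear regression. Run at ≤0.001% or 2.0% final serum albumin.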
The IC50 is the concentration at which inhibition is half-maximal. Take `CC[C@H](C)[C@H](NC(=O)[C@H](CC(C)C)NC(=O)[C@H](Cc1c[nH]c2ccccc12)NC(=O)[C@H](C)NC(=O)[C@@H](NC(=O)[C@H](Cc1ccccc1)NC(=O)[C@H](CC(=O)O)NC(=O)[C@H](CCC(N)=O)NC(=O)[C@H](C)NC(=O)[C@H](CCCNC(=N)N)NC(=O)[C@H](CCCNC(=N)N)NC(=O)[C@H](CO)NC(=O)[C@H](CCC(=O)O)NC(=O)[C@H](CC(C)C)NC(=O)[C@H](Cc1ccc(O)cc1)NC(=O)[C@H](CCCCN)NC(=O)[C@H](CO)NC(=O)[C@H](Cc1ccc(O)cc1)NC(=O)[C@H](CC(=O)O)NC(=O)[C@H](CO)NC(=O)[C@@H](NC(=O)[C@H](Cc1ccccc1)NC(=O)[C@@H](NC(=O)CNC(=O)[C@H](CCC(N)=O)NC(=O)C(C)(C)NC(=O)[C@@H](N)Cc1c[nH]cn1)[C@@H](C)O)[C@@H](C)O)C(C)C)C(=O)N[C@@H](CCCCNC(=O)CC[C@H](NC(=O)CC[C@H](NC(=O)COCCOCCNC(=O)COCCOCCNC(=O)CC[C@H](NC(=O)CCCCCCCCCCCCCCCCC(=O)O)C(=O)O)C(=O)O)C(=O)O)C(=O)N[C@H](C(N)=O)[C@@H](C)O` [Chem. 34, N^ε28-[(4S)-4-carboxy-4-[[(4S)-4-carboxy-4-[[2-[2-[2-[[2-[2-[2-[[(4S)-4-carboxy-4-(17-carboxyheptadecanoylamino)butanoyl]amino]ethoxy]ethoxy]acetyl]amino]ethoxy]ethoxy]acetyl]amino]butanoyl]amino]butanoyl]-[Aib2,Glu15,Ala24,Ile27,Lys28]-Glucagon amide] (H-H[Aib]QGTFTSDYSKYLESRRAQDFVAWLIK([γGlu-γGlu-AEEA-AEEA-γGlu-C18 diacid])T-NH2): the IC50 was determined as 2.2 nM.
The figure for `CC[C@H](C)[C@H](NC(=O)[C@H](CC(C)C)NC(=O)[C@H](Cc1c[nH]c2ccccc12)NC(=O)[C@H](CCC(N)=O)NC(=O)[C@@H](NC(=O)[C@H](Cc1ccccc1)NC(=O)[C@H](CC(=O)O)NC(=O)[C@H](CCCNC(=N)N)NC(=O)[C@H](C)NC(=O)[C@H](CCCNC(=N)N)NC(=O)[C@H](CCCNC(=N)N)NC(=O)[C@H](CO)NC(=O)[C@H](CCC(=O)O)NC(=O)[C@H](CC(C)C)NC(=O)[C@H](Cc1ccc(O)cc1)NC(=O)[C@H](CCCNC(=N)N)NC(=O)[C@H](CO)NC(=O)[C@H](Cc1ccc(O)cc1)NC(=O)[C@H](CC(=O)O)NC(=O)[C@H](CO)NC(=O)[C@@H](NC(=O)[C@H](Cc1ccccc1)NC(=O)[C@@H](NC(=O)CNC(=O)[C@H](CCC(N)=O)NC(=O)C1(NC(=O)[C@@H](N)Cc2c[nH]cn2)CCC1)[C@@H](C)O)[C@@H](C)O)C(C)C)C(=O)N[C@@H](CCCCNC(=O)CC[C@H](NC(=O)COCCOCCNC(=O)CC[C@H](NC(=O)COCCOCCNC(=O)CC[C@H](NC(=O)COCCOCCNC(=O)CC[C@H](NC(=O)CC[C@H](NC(=O)CCCCCCCCCCCCCCCCC(=O)O)C(=O)O)C(=O)O)C(=O)O)C(=O)O)C(=O)O)C(=O)N[C@H](C(N)=O)[C@@H](C)O` [Chem. 36, N^ε28-[(4S)-4-carboxy-4-[[2-[2-[2-[[(4S)-4-carboxy-4-[[2-[2-[2-[[(4S)-4-carboxy-4-[[2-[2-[2-[[(4S)-4-carboxy-4-[[(4S)-4-carboxy-4-(17-carboxyheptadecanoylamino)butanoyl]amino]butanoyl]amino]ethoxy]ethoxy]acetyl]amino]butanoyl]amino]ethoxy]ethoxy]acetyl]amino]butanoyl]amino]ethoxy]ethoxy]acetyl]amino]butanoyl]-[Acb2,Arg12,Glu15,Arg20,Ile27,Lys28]-Glucagon amide] (H-H[Ac4c]QGTFTSDYSRYLESRRARDFVQWLIK([γGlu-AEEA-γGlu-AEEA-γGlu-AEEA-γGlu-γGlu-C18 diacid])T-NH2; N-terminus assumed) is 1.5 nM; for `CC[C@H](C)[C@H](NC(=O)[C@H](CC(C)C)NC(=O)[C@H](Cc1c[nH]c2ccccc12)NC(=O)[C@H](CCC(N)=O)NC(=O)[C@@H](NC(=O)[C@H](Cc1ccccc1)NC(=O)[C@H](CC(=O)O)NC(=O)[C@H](CCCNC(=N)N)NC(=O)[C@H](C)NC(=O)[C@H](CCCNC(=N)N)NC(=O)[C@H](CCCNC(=N)N)NC(=O)[C@H](CO)NC(=O)[C@H](CCC(=O)O)NC(=O)[C@H](CC(C)C)NC(=O)[C@H](Cc1ccc(O)cc1)NC(=O)[C@H](CCCNC(=N)N)NC(=O)[C@H](CO)NC(=O)[C@H](Cc1ccc(O)cc1)NC(=O)[C@H](CC(=O)O)NC(=O)[C@H](CO)NC(=O)[C@@H](NC(=O)[C@H](Cc1ccccc1)NC(=O)[C@@H](NC(=O)CNC(=O)[C@H](CCC(N)=O)NC(=O)C(C)(C)NC(=O)[C@@H](N)Cc1c[nH]cn1)[C@@H](C)O)[C@@H](C)O)C(C)C)C(=O)N[C@@H](CCCCNC(=O)CC[C@H](NC(=O)COCCOCCNC(=O)CC[C@H](NC(=O)COCCOCCNC(=O)CC[C@H](NC(=O)COCCOCCNC(=O)CC[C@H](NC(=O)CC[C@H](NC(=O)CCCCCCCCCCCCCCCCC(=O)O)C(=O)O)C(=O)O)C(=O)O)C(=O)O)C(=O)O)C(=O)N[C@H](C(N)=O)[C@@H](C)O` [Chem. 37, N^28-[(4S)-4-carboxy-4-[[2-[2-[2-[[(4S)-4-carboxy-4-[[2-[2-[2-[[(4S)-4-carboxy-4-[[2-[2-[2-[[(4S)-4-carboxy-4-[[(4S)-4-carboxy-4-(17-carboxyheptadecanoylamino)butanoyl]amino]butanoyl]amino]ethoxy]ethoxy]acetyl]amino]butanoyl]amino]ethoxy]ethoxy]acetyl]amino]butanoyl]amino]ethoxy]ethoxy]acetyl]amino]butanoyl]-[Aib2,Arg12,Glu15,Arg20,Ile27,Lys28]-Glucagon amide] (H-H[Aib]QGTFTSDYSRYLESRRARDFVQWLIK([γGlu-AEEA-γGlu-AEEA-γGlu-AEEA-γGlu-γGlu-C18 diacid])T-NH2; N-terminus assumed) it is 1.5 nM.
`CC[C@H](C)[C@H](NC(=O)[C@H](CC(C)C)NC(=O)[C@H](Cc1c[nH]c2ccccc12)NC(=O)[C@H](CCC(N)=O)NC(=O)[C@@H](NC(=O)[C@H](Cc1ccccc1)NC(=O)[C@H](CCC(=O)O)NC(=O)[C@H](CCC(N)=O)NC(=O)[C@H](C)NC(=O)[C@H](CCCNC(=N)N)NC(=O)[C@H](CCCNC(=N)N)NC(=O)[C@H](CO)NC(=O)[C@H](CCC(=O)O)NC(=O)[C@H](CC(C)C)NC(=O)[C@H](Cc1ccc(O)cc1)NC(=O)[C@H](CCCCN)NC(=O)[C@H](CO)NC(=O)[C@H](CC(C)C)NC(=O)[C@H](CC(=O)O)NC(=O)[C@H](CO)NC(=O)[C@@H](NC(=O)[C@H](Cc1ccccc1)NC(=O)[C@@H](NC(=O)CNC(=O)[C@H](CCC(N)=O)NC(=O)C1(NC(=O)[C@@H](N)Cc2c[nH]cn2)CCC1)[C@@H](C)O)[C@@H](C)O)C(C)C)C(=O)N[C@@H](CCCCNC(=O)CC[C@H](NC(=O)COCCOCCNC(=O)COCCOCCNC(=O)CC[C@H](NC(=O)CC[C@H](NC(=O)CCCCCCCCCCCCCCCCC(=O)O)C(=O)O)C(=O)O)C(=O)O)C(=O)N[C@H](C(N)=O)[C@@H](C)O` [Chem. 38, N^ε28-[(4S)-4-carboxy-4-[[2-[2-[2-[[2-[2-[2-[[(4S)-4-carboxy-4-[[(4S)-4-carboxy-4-(17-carboxyheptadecanoylamino)butanoyl]amino]butanoyl]amino]ethoxy]ethoxy]acetyl]amino]ethoxy]ethoxy]acetyl]amino]butanoyl]-[Acb2,Leu10,Glu15,Glu21,Ile27,Lys28]-Glucagon amide] (H-H[Ac4c]QGTFTSDLSKYLESRRAQEFVQWLIK([γGlu-AEEA-AEEA-γGlu-γGlu-C18 diacid])T-NH2; N-terminus assumed): the IC50 was determined as 0.3 nM.
